According to patent publication US20250312320A1, “METHOD AND TREATMENT FOR OSTEOARTHRITIS AND DISEASES OF CHONDROCYTE HYPERTROPHY” (The Royal Veterinary College, priority 2022, published 2025):
Entries after “also recorded” stand apart in the source; their conditions may differ.

Key:
MC3T3 cells = assay: MC3T3 cell viability assay (resazurin); assay type: cell-based; details: 1 μM, day 7 and 14
Procedure: To determine potential toxicity of CDK8i on MC3T3 cells, a cell viability assay was carried out on day 7 and 14 of MC3T3 cells treated with 1 μM BI1347. Briefly, culture media was replaced with differentiation media containing 0.2 mM resazurin dye and incubated for 2 hours at 37° C. before measurement at 570 nm normalized to 600 nm.

ATDC5 micromass = assay: IL-1β induced extracellular matrix degradation of ATDC5 micromass: gene expression; assay type: cell-based, mouse
Procedure: To mimic this route of cartilage degradation in vitro, 10 μl ATDC5 micromasses were seeded and differentiated in the presence of 1 μM BI1347 or DMSO for 11 days to allow for sufficient ECM deposition. Cells were then serum starved for 24 hours in differentiation media containing 1% FBS before treatment with 1 μM BI1347 or DMSO for 1 hour and subsequent induction of ECM degradation by co-treatment with 10 ng/ml IL-1β (PeproTech) for 48 hours. Compound only conditions were used as a negative control and additional micromasses were differentiated in the presence of 1 μM BI1347 for the entire culture period to observe whether pre-treatment of ATDC5 with BI1347 alters cellular responses to IL-1B. On day 14 micromasses were stained with alcian blue and leached as previous and RNA extracted for gene expression analysis as above.

[1] = system: STR/Ort mouse (spontaneous osteoarthritis); assay: STR/Ort mouse pilot study: cartilage manifestations and gene expression markers; assay type: in vivo; details: 5 mg/kg oral gavage intermittently, 2 weeks
Procedure: The STR/Ort mouse is a spontaneous mouse model of osteoarthritis which follows a similar trajectory as primary osteoarthritis disease development as humans and companion animals. […] An initial pilot study consisting of 2 male STR/Ort mice aged 18 weeks per group was carried out. Mice were dosed 5 mg/kg […] (N=2) or DMSO (N=2) in 60% PEG400 via oral gavage 3 times a week intermittently for 2 weeks. On day 14, mice were sacrificed, and articular cartilage was harvested from the knee joint using a micro rongeur. Tissue was homogenised in Qiazol using 2.4 mm beads in pre-chilled Tissue Lyser II racks (Qiagen) at 30 Hz for 5 minutes in total with intervals for samples to be chilled on ice every 60 seconds to prevent sample heating. Homogenised samples were directly processed for RNA extraction using the Direct-Zol microprep kit (Zymo) and RNA was processed for gene expression analysis via qPCR as previous.

[2] = system: ihMSC (TERT immortalised human mesenchymal stromal cell line); assay: ihMSC micromasses in chondrogenesis and IL1β OA disease degradation model; assay type: cell-based; details: 100 nM
Procedure: (§1) Additional experiments were carried out on primary chondrocytes (equine, canine and human) and ihMSC (TERT immortalised human mesenchymal stromal cell line) to investigate whether CDK8i protects from IL-1β induced degradation when added throughout the entirety of differentiation/IL-1β treatment. Briefly, ihMSCs were seeded at a density of 5×10^4 cells per 10 μl micromass and differentiated in ihMSC chondrogenic media (1% FBS, 1% Ab/Am, 1× Insulin-Transferrin-Selenium premix, 10 μM Y-27632, 100 nM dexamethasone, 50 μg/ml ascorbic acid, 20 ng/ml TGF-β3 (Peprotech)). Primary chondrocytes were seeded at 2.7×10^5 cells per 10 μl micromass and differentiated in primary chondrocyte differentiation media. All micromasses were differentiated for 12 days in the presence of 100 nM […] or DMSO. Some micromasses were processed for gene expression analysis/alcian blue staining on day 12, whilst others were treated with IL-β media (1% FBS, 1% Ab/Am, 10 ng/ml IL-1B) and CDK8i for 48-hours before processing for alcian blue staining/gene expression analysis on day 14 as previously described.

[3] = system: primary human articular chondrocytes; assay: Primary human articular chondrocytes in chondrogenesis and IL1β OA disease model: gene expression; assay type: cell-based; details: 100 nM; for MATN3 gene expression, increase vs DMSO / SMOC2 gene expression, increase vs DMSO: N=1
Procedure: Articular cartilage was isolated, placed into a petri dish containing phosphate buffer saline (PBS) supplemented with 2% Ab/Am (PBS-Ab/Am) and transferred to a laminar flow hood for processing. Cartilage shavings were minced using a sterile scalpel to approximately 1 mm^3 and washed in fresh PBS-Ab/Am by centrifugation at 500×g for 10 minutes. Supernatant was removed and the cartilage pellet resuspended in 5 ml TrypLE™ (Gibco) before incubation at 37° C. for 10 minutes with gentle agitation. Dissociated cartilage fragments were pelleted and washed to remove excess TrypLE and resuspended in DMEM-complete media (DMEM/F12 (Gibco), 1% Ab/Am, 10% FBS) supplemented with 2 mg/ml Collagenase Type II and incubated overnight at 37° C. with gentle agitation. The cartilage digest was pelleted, washed and subsequently resuspended in DMEM-complete. Released cells were counted using a haematocytometer and seeded at 10,000 cells per cm^2. The cultures were incubated at 37° C., 5% CO2 in a humidified incubator for 2 days before refreshing DMEM-complete every 2 days until confluency. For differentiation experiments, primary chondrocytes were differentiated in DMEM/F12 containing 2% FBS, 1% Ab/Am, 1× Insulin-Transferrin-Selenium premix, 10 ng/ml TGFβ3 (primary chondrocyte differentiation media).
as §1

[4] = system: STR/Ort mouse tibial subchondral bone; assay: STR/Ort mouse 12 week study: microCT of subchondral bone; assay type: in vivo; details: 5 mg/kg oral intermittently, 12 weeks, N=3/group
Procedure: Following the pilot study, a larger in vivo study using the STR/Ort OA mouse model was conducted. […]
On week 12 mice were sacrificed and hind limbs were fixed in 4% PFA for 48 hours before storing in 70% EtOH. Micro computed tomography (μCT) scans were carried out on hind limbs to analyse MSC2530818 effects on bone. Samples were wrapped in plastic film before scanning to prevent drying and scanned using the Skyscan 1172F (Bruker). Whole limbs were scanned with X-ray settings 50 kV and 200 μA, using an aluminum 0.5 mm filter, 960 ms exposure time and 5 μm pixel size. Scanned images were reconstructed into tomograms using NRecon 1.7.3.1 (Bruker) using a reconstruction threshold with a minimum value of −1000 and maximum value of 9486 in Hounsfield units and repositioned using Dataviewer 1.5.4 (Bruker). Tibial subchondral bone regions were manually segmented and analysed using CTAn 1.18.4 (Bruker).

[5] = 1 μM days 12-14, with 10 ng/ml IL-1β
[6] = 1 μM throughout differentiation, 10 ng/ml IL-1β days 12-14

Question: With CN(C)C(=O)Cn1cc(-c2ccc(-c3cncc4ccccc34)cc2)cn1 [BI1347] as the compound, how does the “cell viability (resazurin) vs DMSO” value (MC3T3 cells) read?
Answer: no difference in absorbance; also recorded: no toxicity observed

Question: What about the “ACAN expression, increase vs DMSO” value (ATDC5 micromass; [5]) of the same compound?
Answer: 3 fold

Question: And the “COL2A1 expression, increase vs DMSO” value (ATDC5 micromass; [5])?
Answer: 1.5 fold

Question: And the “COL2A1 expression, increase vs DMSO” value (ATDC5 micromass; 1 μM days 12-14, without IL-1β)?
Answer: 1.7 fold

Question: What about the “ACAN expression, increase vs DMSO” value (ATDC5 micromass; 1 μM days 12-14, without IL-1β (N.S)) of the same compound?
Answer: 1.2 fold

Question: And the “ACAN expression, increase vs DMSO” value (ATDC5 micromass; [6])?
Answer: 20 fold

Question: And the “COL2A1 expression, increase vs DMSO” value (ATDC5 micromass; [6])?
Answer: 3 fold

Question: With Cc1n[nH]c2ncc(C(=O)N3CCC[C@H]3c3ccc(Cl)cc3)cc12 [MSC2530818] as the compound, how does the “gene expression of cartilage anabolic biomarkers” value ([1]; N=2, not powered for significance) read?
Answer: increased; also recorded: increase in expression

Question: And the “articular cartilage thickness (appearance post-dissection)” value ([1]; N=2, vs DMSO)?
Answer: appears thicker

Question: And the “infiltration of blood vessels in articular cartilage” value ([1]; male aged 18 weeks, N=2, vs DMSO)?
Answer: absent; also recorded: not present

Question: What about the “ADAMTS5 gene expression, reduction vs DMSO” value [2] of the same compound?
Answer: 1.3 fold

Question: What about the “ACAN gene expression, increase vs DMSO” value ([2]; OA disease model (+IL1β)) of the same compound?
Answer: 1.6 fold

Question: What about the “MATN3 gene expression, increase vs DMSO” value ([2]; OA disease model (+IL1β)) of the same compound?
Answer: 3 fold

Question: What about the “glycosaminoglycan (GAG; alcian blue stain) intensity vs DMSO” value ([2]; both conditions (−IL1β and +IL1β)) of the same compound?
Answer: increase

Question: What about the “ACAN gene expression, increase vs DMSO” value ([2]; chondrogenic (−IL1β)) of the same compound?
Answer: 3 fold

Question: And the “MATN3 gene expression, increase vs DMSO” value ([2]; chondrogenic (−IL1β))?
Answer: 4 fold

Question: What about the “ADAMTS5 gene expression, reduction vs DMSO” value ([3]; OA disease model (+IL1β), p=0.053) of the same compound?
Answer: 2.5 fold

Question: And the “MATN3 gene expression, increase vs DMSO” value ([3]; chondrogenic (−IL1β))?
Answer: 100 fold

Question: What about the “SMOC2 gene expression, increase vs DMSO” value ([3]; chondrogenic (−IL1β)) of the same compound?
Answer: 6 fold

Question: What about the “MATN3 gene expression, increase vs DMSO” value ([3]; disease model (+IL1β)) of the same compound?
Answer: 12 fold

Question: And the “SMOC2 gene expression, increase vs DMSO” value ([3]; disease model (+IL1β))?
Answer: 7 fold

Question: What about the “subchondral bone surface area vs DMSO” value [4] of the same compound?
Answer: did not observe an alteration; also recorded: no difference

Question: And the “subchondral bone surface density vs DMSO” value [4]?
Answer: did not observe an alteration; also recorded: no difference

Question: What about the “subchondral bone volume/total volume (BV/TV) vs DMSO” value [4] of the same compound?
Answer: did not observe an alteration; also recorded: no difference
